Assay results from US4537962A, “Substituted 1,3,4-thiadiazolo[3,2-A]pyrimidines and compositions containing them” (Farmitalia Carlo Erba, S.p.A., priority 1982, dated 1985).

Experiments:
[1] = approximate acute toxicity (LD50) in the mouse; details: in vivo, po, per os, single administration of increasing doses, measured on the seventh day after the day of treatment
From the text: In view of their high therapeutic index, the compounds of the invention can be used safely in medicine, For example, the approximate acute toxicity (LD50) of the compounds 7-trans-(2-phenyl-ethenyl)-5H-1,3,4-thiadiazolo[3,2-a]pyrimidine-5-one, 2-methyl-7-trans-(2-phenyl-ethenyl)-5H-1,3,4-thiadiazolo[3,2-a]pyrimidine- 5-one, 7-trans-[2-(2,6-dichloro-phenyl)-ethenyl]-5H-1,3,4-thiadiazolo[3,2-a]pyrimidine-5-one, 7-trans-[2-(3-pyridyl)-ethenyl]-5H-1,3,4-thiadiazolo[3,2-a]pyrimidine-5-one, 7-trans-[2-(4-fluoro-phenyl)-ethenyl]-5H-1,3,4-thiadiazolo[3,2-a]pyrimidine-5-one, 2-phenyl-7-trans-[2-(3-pyridyl)-ethenyl]-5H-1,3,4-thiadiazolo[3,2-a]pyrimidine-5-one and 2-(4-methyl-phenyl)-7-trans-[2-(3-pyridyl)-ethenyl]-5H-1,3,4-thiadiazolo[3,2-a]pyrimidine-5-one in the mouse, determined by single administration of increasing doses and measured on the seventh day after the day of treatment, is higher than 800 mg/kg per os. Analogous toxicity data have been found for the other compounds of the invention.

restraint ulcers = test: inhibition of restraint ulcers in rats (anti-ulcerogenic activity, method of Bonfils et al.); type: in vivo, Sprague-Dawley male rats; details: po; approximate ED50; rat, p.o. one hour before the immobilization; 4 hours immobilization; read-out: Antiulcerogenic activity p.o., ED50
From the text: The compounds of the present invention are active on the gastroenteric system, in particular they are endowed with anti-ulcerogenic and gastric anti-secretory activity and are therefore useful in therapy, for example in the prevention and treatment of peptic, e.g. duodenal, gastric and exophageal ulcers and to inhibit gastric acid secretion. The compounds of the invention are also useful for reducing the undesirable gastrointestinal side-effects resulting from systemic administration of anti-inflammatory prostaglandin synthetase inhibitors and may be, therefore, used for this purpose in association with them. The anti-ulcerogenic activity of the compounds of the invention is shown, e.g., by the fact that they are active in the test of the inhibition of restraint ulcers in rats, according to the method of Bonfils et al., (Therapie, 1960, 15, 1096; Jap. J. Pharmac. 1968, 18, 9).
Six Sprague-Dawley male rats (100-120 g) fasted 24 hours were used for the experiment: a square flexible small-mesh wire netting was used for the immobilization and 4 hours after the immobilization the rats were sacrificed, their stomachs were removed and the lesions counted under a dissecting microscope. The tested compounds were administered per os (p.o.) one hour before the immobilization.

gastric secretion = test: gastric antisecretory activity in rats by the pylorus ligature technique (method of H. Shay et al.); type: in vivo, Sprague-Dawley male rats; details: 4 h; approximate ED50; rat, intraduodenal, four hours after pylorus ligature
Procedure: Gastric antisecretory activity was evaluated in rats by the pylorus ligature technique. Six Sprague-Dawley male rats (110-130 g) were used for each group. Twenty-four hours before the test, the rats were deprived of food but their water supply was maintained. On the day of the operation, the pylorus was ligated under light ether anaesthesia. Each compound was injected intraduodenally (i.d.) at the time of the ligature. Four hours after the ligature the rats were sacrificed, the stomach secretion was collected and centrifuged at 3500 r.p.m. for 10 minutes, and the volume, less sediment, was determined.
The amount of the free hydrochloric acid in the gastrc juice was determined by titration against 0.01N sodium hydroxide to pH 7.0 on the pH-meter.

Row | SMILES | LD50 at 168 h [1] [mg/kg] | ED50 (restraint ulcers) [mg/kg] | ED50 (gastric secretion) [mg/kg]
1 | O=c1cc(/C=C/c2ccccc2)nc2scnn12 [7-trans-(2-phenyl-ethenyl)-5H-1,3,4-thiadiazolo[3,2-a]pyrimidine-5-one] | > 800 | – | –
2 | O=c1cc(/C=C/c2cccnc2)nc2sc(-c3ccccc3)nn12 [2-phenyl-7-trans-[2-(3-pyridyl)-ethenyl]-5H-1,3,4-thiadiazolo[3,2-a]pyrimidine-5-one] | > 800 | 3 | –
3 | Cc1ccc(-c2nn3c(=O)cc(/C=C/c4cccnc4)nc3s2)cc1 [2-(4-methyl-phenyl)-7-trans-[2-(3-pyridyl)-ethenyl]-5H-1,3,4-thiadiazolo[3,2-a]pyrimidine-5-one] | > 800 | – | ~50
4 | O=c1cc(/C=C/c2ccc(F)cc2)nc2scnn12 | > 800 | – | –
5 | O=c1cc(/C=C/c2cccnc2)nc2scnn12 [7-trans-[2-(3-pyridyl)-ethenyl]-5H-1,3,4-thiadiazolo[3,2-a]pyrimidine-5-one] | > 800 | – | –
6 | O=c1cc(/C=C/c2c(Cl)cccc2Cl)nc2scnn12 [7-trans-[2-(2,6-dichloro-phenyl)-ethenyl]-5H-1,3,4-thiadiazolo[3,2-a]pyrimidine-5-one] | > 800 | – | –
7 | Cc1nn2c(=O)cc(/C=C/c3ccccc3)nc2s1 [2-methyl-7-trans-(2-phenyl-ethenyl)-5H-1,3,4-thiadiazolo[3,2-a]pyrimidine-5-one] | > 800 | – | –
